Results as given in ChEMBL document CHEMBL1142376, “Novel CADD-based peptidyl vinyl ester derivatives as potential proteasome inhibitors” (Bioorg Med Chem Lett, 2008).

Assays:
[1] = Inhibition of chymotrypsin-like activity of 20S proteasome
[2] = Inhibition of post acidic-like activity of 20S proteasome
[3] = Inhibition of trypsin-like activity of 20S proteasome
HL-60 = test: Antiproliferative activity against human HL60 cells at 10 umole; assay type: functional
BGC-823 = test: Antiproliferative activity against human BGC823 cells at 10 umole; assay type: functional
Bel-7402 = test: Antiproliferative activity against human Bel7402 cells at 10 umole; assay type: functional
KB = test: Antiproliferative activity against human KB cells at 10 umole; assay type: functional

IC50 [1] [µmol]	IC50 [2] [µmol]	IC50 [3] [µmol]	Compound	Activity (HL-60) [%]	Activity (BGC-823) [%]	Activity (Bel-7402) [%]	Activity (KB) [%]
> 100	> 100	> 100	CCOC(=O)/C=C/[C@H](Cc1ccccc1)NC(=O)[C@H](Cc1ccccc1)NC(=O)OC(C)(C)C	25.73	20.9	-3.61	-4.66
> 100	> 100	> 100	CCOC(=O)/C=C/[C@H](Cc1ccc(O)cc1)NC(=O)[C@@H](NC(=O)OC(C)(C)C)C(C)C	22.1	18.44	4.6	1.76
